Results: US20040058310A1 (priority 2002, published 2004)
Where two headings read alike, the source gives them in different places.

Experiments:
[1] = test system: nicotinic acetylcholine receptors; settings: cited from earlier work
[2] = test system: human polymorphonuclear cells
[3] = test system: human polymorphonuclear cells; remark: listed apart in the source
PMN nicotinic receptors [4] = assay: saturation of specific [125I]-α-bungarotoxin binding to smokers' polymorphonuclear leukocytes; set-up: species or system human
Experimental: FIG. 1: Saturation of specific [^3H]-epibatidine (A) and [^125I]-α-bungarotoxin (B) binding to human polymorphonuclear cells. Insets, Scatchard analyses of specific binding of [^3H]-epibatidine and [^125I]-α-bungarotoxin (1 pM to 10 nM). […] Data are the mean± standard error of three experiments.
Saturation studies were conducted with increasing concentrations of [^3H]-epibatidine (1 pM-10 nM) and [^125I]-α-bungarotoxin (1 pM-10 nM). […] Following the binding reactions, bound and free ligands were separated by rapid vacuum filtration through Whatman GF/B fiberglass filters (Polylabo) treated with ice-cold buffer (KH2PO4 5 mM, Na2HPO4 20 mM, NaCl 100 mM, pH 7.4) containing 0.1% milk. The filters were rinsed three times with 5 ml of the same ice-cold buffer and placed in vials with 4 ml of Picofluor 30 scintillation liquid (Packard Instrument). The radioactivity was determined by liquid scintillation counting.
Smokers' polymorphonuclear leukocytes (n=3) were used to investigate saturation experiments.

PMN nicotinic receptors [5] = assay: [125I]-α-bungarotoxin binding sites in PMN of smokers and non-smokers; set-up: species or system human
Experimental: (§1) FIG. 2: [^3H]-epibatidine (A) and [^125I]-α-bungarotoxin (B) binding sites in human polymorphonuclear cells isolated from smokers (n=90 and 60, respectively) and non-smokers (n=50). Binding levels were measured at 10 nM of [^3H]-epibatidine and [^125I]-α-bungarotoxin. Nonspecific binding was determined in the presence of 1 μM or 100 μM of nicotine, respectively.
(§2) Human polymorphonuclear leukocytes were isolated according to a slightly modified version of the method described by Cabanis (Cabanis, Gressier et al. 1994). Briefly, 20 ml of fresh heparinized blood were diluted with an equal amount of phosphate-buffered saline (PBS) 0.1 M, pH 7.4, and placed above 10 ml of Histopaque-1077. After centrifugation at 400 g for 30 min, the pellet was resuspended in 40 ml of cold isotonic ammonium chloride solution (NH4Cl 0.15 M, NaHCO3 10 mM). Following 20 min at 4° C., the cell suspension was centrifuged at 160 g for 10 minutes, and the white pellets were washed twice in 10 ml of Hank's buffer. The protein content was measured using the method developed by Lowry et al. (Lowry et al. 1951).
Binding assays were performed on intact purified PMN. Cellular protein (100 μg) was incubated with 10 nM [^3H]-epibatidine for 30 min. or with [^125I]-α-bungarotoxin for 60 min at 25° C. in a volume of 100 μl. […]

PMN nicotinic receptors [6] = assay: saturation of specific [3H]-epibatidine binding to smokers' polymorphonuclear leukocytes; set-up: species or system human
Experimental: Insets, Scatchard analyses of specific binding of [^3H]-epibatidine and [^125I]-α-bungarotoxin (1 pM to 10 nM). Nonspecific binding was determined in the presence of 1 μM or 100 μM of nicotine respectively. Data are the mean± standard error of three experiments.
as §2
(§3) Binding assays were performed on intact purified PMN. Cellular protein (100 μg) was incubated with 10 nM [^3H]-epibatidine for 30 min. or with [^125I]-α-bungarotoxin for 60 min at 25° C. in a volume of 100 μl. Specific binding was defined as the difference between total binding and binding in the presence of 1 μM or 100 μM nicotine, performed in triplicate.
Saturation studies were conducted with increasing concentrations of [^3H]-epibatidine (1 pM-10 nM) and [^125I]-α-bungarotoxin (1 pM-10 nM). Specific binding was defined as the difference between total binding and binding in the presence of 1 μM or 100 μM nicotine, respectively, performed in triplicate. Following the binding reactions, bound and free ligands were separated by rapid vacuum filtration through Whatman GF/B fiberglass filters (Polylabo) treated with ice-cold buffer (KH2PO4 5 mM, Na2HPO4 20 mM, NaCl 100 mM, pH 7.4) containing 0.1% milk. The filters were rinsed three times with 5 ml of the same ice-cold buffer and placed in vials with 4 ml of Picofluor 30 scintillation liquid (Packard Instrument). The radioactivity was determined by liquid scintillation counting.
Binding experiments were investigated in smokers' polymorphonuclear leukocyte cells in presence of various concentrations of [^3H]-epibatidine ranging from 0.1 nM to 25 nM.
For each experiment, the mean values of RCR or percentages were compared in a one-way analysis of variance and a Dunneft test. EC50 was calculated by non-linear regression fit of effect-concentration (C) curve to the equation: E=(Emax×C)/(C+EC50), where Emax and EC50 are the maximal efficiency and the concentration producing 50% effect respectively, using commercially available software (Micropharm®) (Urien 1995). Data from binding experiments were analysed by means of non-linear regression with commercially available software (Micropharm®) (Urien 1995).

PMN nicotinic receptors [7] = assay: [3H]-epibatidine binding sites in PMN of smokers and non-smokers; set-up: species or system human
Experimental: as §1, §2, §3
Nicotinic receptor binding sites in PMN were investigated from 90 smokers and 50 non-smokers. Participating smokers were recruited from the Centre de Tabacologie, Hôpital A. Chenevier, Créteil.

Normal B lymphocytes = assay: total epibatidine-binding sites in B lymphocytes; settings: mean and standard error of three independent experiments
Source text: (§4) The presence of nAChRs in B lymphocytes was further confirmed by studying the [^3H]-epibatidine and [^125I]-α-bungarotoxin binding. Epibatidine is a potent agonist of heteromeric nAChRs, while -α-bungarotoxin (α-Bgt) binds to both muscle-type nAChRs and homomeric neuronal-type of nAChRs. In addition, epibatidine penetrates inside the cell and binds both surface and intracellular receptors, while α-Bgt, when tested at ice-cold temperature, binds only surface-expressed receptors. Normal B lymphocytes and […] X63-Ag8 cells contained almost equal amounts of total epibatidine-binding sites per cell (12,220±3,200 and 10,170±1,100, respectively, means and standard error of three independent experiments).

melanoma X63-Ag8 cells = assay: total epibatidine-binding sites in X63-Ag8 cells; settings: mean and standard error of three independent experiments
Source text: as §4

[8] = hot plate assay; cited from earlier work
[9] = in vivo; cited from earlier work
opioid receptor = settings: cited from earlier work

Experimental for α3, α4 and β2 subunits: Total RNA was isolated from smokers and non-smokers (TRIZOL, Gibco). First strand cDNA synthesis reactions were performed after annealing 5 μg of total RNA with 100 ng random hexamers (70° C. for 10 minutes) by incubation at 42° C. for 50 minutes. Polymerase chain reactions were carried out in a 20 μl reaction volume containing 1 μl cDNA product, 250 ng of both forward and reverse primers (Table 1), 5 units of Taq polymerase then cycled 30 times at 95° C. for 1 minute, 55° C. for 1 minute and 72° C. for 2 minutes. The amplified DNA products were analysed by agarose gel electrophoresis and stained with ethidium bromide. The PCR products were transferred from the gel to Hybond-N^+ membranes (Amersham) and hybridised with a ^32P-end-labelled oligoprobe (Table 1). Southern blot hybridizations were performed overnight at 42° C. in hybridisation buffer (5×SSC, 1× Denhardt's, 20 mM sodium phosphate buffer pH 6.5, 0.1% SDS, 100 μg/ml tRNA). The Southern blots were washed for 1 hour at room temperature in 2×SSC and 1% SDS, then exposed to X-ray film (Kodak Biomax) overnight with an intensifying screen.

## CNC1(C)C2CCC(C2)C1(C)C (stereo not shown) [mecamylamine]
[1]; noncompetitive nicotinic antagonist
  blockade of epibatidine binding to nicotinic acetylcholine receptors: can be blocked

## CN1CCCC1c1cccnc1 (stereo not shown) [nicotine]
[2]
  Bmax of [3H]-epibatidine binding sites after nicotine: 34.66±6.25 fmol/mg protein
  formation of [3H]-epibatidine binding sites: induced the formation
  increase of the number of [3H]-epibatidine binding sites: 2.67 fold
  number of [3H]-epibatidine binding sites after nicotine: 29.19±10.28 fmol/mg protein
[3]
  change in the binding of [125I]-α-bungarotoxin to PMN: no change
α3, α4 and β2 subunits
  nAChR subunit expression after ex-vivo nicotine exposure: induced expression of α3, α4 and β2 subunits
[1]
  Ki: 1010 pM

## Cc1cc([C@H]2C[C@@H]3CC[C@H]2N3)on1 [epiboxidine]
[1]; nAChR
  Ki: 600 pM

## [^125I]-α-bungarotoxin
PMN nicotinic receptors [4]
  Bmax: 189.46±126.27 fmol/mg proteins
  nH (Scatchard plot linearity): 1.08±0.06
PMN nicotinic receptors [4]; read-out: apparent Kd
  Kd: 2770 ± 1540 pM
PMN nicotinic receptors [5]
  PMN tested that demonstrated binding sites: Approximately 30%
  binding sites in smokers compared with non-smokers: No difference

## Clc1ccc(C2CC3CCC2N3)cn1 (stereo not drawn) [epibatidine, exo-2(6-chloro-3-pyridyl)-7-azabicyclo[2.2.1]-heptane]
PMN nicotinic receptors [6]; biphasic Scatchard plot
  Hill coefficient: 0.76
PMN nicotinic receptors [6]; first site
  Bmax1, high affinity site: 46.97±5.64 fmol/mg protein
  share of the total binding sites, high affinity site: 86.86%
PMN nicotinic receptors [6]; first site, read-out: Kd2, high affinity site
  Kd: 2110 ± 430 pM
PMN nicotinic receptors [6]; second site
  Bmax1, very high affinity site: 7.73±0.64 fmol/mg protein
  share of the total binding sites, very high affinity site: 14.14%
PMN nicotinic receptors [6]; second site, read-out: Kd1, very high affinity site
  Kd: 56.3 ± 27.8 pM
PMN nicotinic receptors [7]; 50 non-smokers, listed as [^3H]-epibatidine
  binding sites in non-smokers' PMN: not present and None
PMN nicotinic receptors [7]; 90 smokers
  smokers with detected binding sites: 82%
PMN nicotinic receptors [7]; PMN of smokers, 10 nM radioligand
  total number of binding sites in smokers: 40.65±4.89 fmol/mg protein
Normal B lymphocytes
  total epibatidine-binding sites per cell: 12,220±3,200 sites per cell
Melanoma X63-Ag8 cells
  total epibatidine-binding sites per cell: 10,170±1,100 sites per cell
[8]
  analgesic effect compared with morphine: approximately 200 times higher than morphine
[9]
  eliciting the Straub-tail response compared with morphine: approximately 500 fold that of morphine
Opioid receptor
  affinity for the opioid receptor: 1/8000
[1]; nAChR, restated in pM
  Ki: ~55 pM
[1]; nAChR
  Ki: 43 to 55 pM
